Experimental data: patent US20230159496A1, “COMPOUNDS AND METHODS FOR MODULATING SPLICING” (REMIX THERAPEUTICS INC., priority 2020, published 2023)
Read-outs that look alike come from different tables or passages of the source.

Legend:
Assay type in all cases: cell-based
HTT mRNA = experiment: Splicing assay (RT-qPCR) monitoring HTT canonical junction (CJ) and alternative junction (AJ) mRNA isoforms; details: A673 or K562 cells, 24 h treatment, top dose 10 uM
Summary of the method: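 A673 or K562 cells treated 24 h at 37 °C with an 11-point 3-fold dilution (top 10 uM final, DMSO ≤0.25%). Lysates assayed by one-step RT-qPCR for HTT CJ and AJ isoforms, normalized to GAPDH, GUSB (K562) or PPIA (A673).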

Target C CJ mRNA = experiment: Gene panel canonical junction qPCR assay, Target C; details: decrease in CJ mRNA levels, gene panel; read-out: Target C IC50
Summary of the method: (§1)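 A673 or K562 cells were treated for 24 h at 37 °C with an 11-point 3-fold dilution, top dose 10 uM, DMSO ≤0.25%. Canonical junction mRNA in lysates was quantified by one-step RT-qPCR and normalized to GAPDH, GUSB or PPIA.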

SMN2 CJ mRNA = experiment: Gene panel canonical junction qPCR assay, SMN2; details: decrease in CJ mRNA levels, gene panel; read-out: SMN2 IC50
Summary of the method: as §1

HTT CJ mRNA = experiment: Gene panel canonical junction qPCR assay, HTT; details: decrease in CJ mRNA levels, gene panel; read-out: HTT IC50
Summary of the method: as §1

[1] = decrease in CJ mRNA (50% response), read-out: HTT CJ AC50
[2] = increase in AJ mRNA (50% response), read-out: HTT AJ AC50

Row | Structure (SMILES) | AC50 (HTT mRNA; [1]) [nM] | AC50 (HTT mRNA; [2]) [nM] | IC50 (Target C CJ mRNA) [nM] | IC50 (SMN2 CJ mRNA) [nM] | IC50 (HTT CJ mRNA) [nM]
1 | Cc1cn2cc(-c3ccc4c(=O)n(C5CCN(C)CC5)cnc4c3F)cc(F)c2n1 [Compound 227, 8-fluoro-7-(8-fluoro-2-methylimidazo[1,2-a]pyridin-6-yl)-3-(1-methylpiperidin-4-yl)quinazolin-4(3H)-one] | 1000 to 10000 | 1000 to 10000 | > 10000 | 100 to 1000 | 1000 to 10000
2 | Cc1cn2cc(-n3cnc4cc(N5CCNCC5)ccc4c3=O)cc(F)c2n1 [Compound 228, 3-(8-fluoro-2-methylimidazo[1,2-a]pyridin-6-yl)-7-(piperazin-1-yl)quinazolin-4(3H)-one] | 100 to 1000 | 100 to 1000 | 100 to 1000 | 100 to 1000 | 100 to 1000
3 | Cc1cn2cc(-n3cnc4cc(N5CCN(C)CC5)ccc4c3=O)cc(F)c2n1 [Compound 229, 3-(8-fluoro-2-methylimidazo[1,2-a]pyridin-6-yl)-7-(4-methylpiperazin-1-yl)quinazolin-4(3H)-one] | > 10000 | > 10000 | > 10000 | > 10000 | > 10000
4 | Cc1cn2cc(-c3cc(F)c4c(=O)n(C5CCNCC5)cnc4c3)cc(F)c2n1 [Compound 230, 5-fluoro-7-{8-fluoro-2-methylimidazo [1,2-a]pyridin-6-yl}-3-(piperidin-4-yl)quinazolin-4-one] | < 100 | < 100 | < 100 | < 100 | < 100
5 | Cc1cn2cc(-c3cc(F)c4c(=O)n(C5CCN(C)CC5)cnc4c3)cc(F)c2n1 [Compound 231, 5-fluoro-7-(8-fluoro-2-methylimidazo[1,2-a]pyridin-6-yl)-3-(1-methylpiperidin-4-yl)quinazolin-4(3H)-one] | 100 to 1000 | 100 to 1000 | 1000 to 10000 | < 100 | 100 to 1000
6 | Cc1cc(-c2cc(F)c3c(=O)n(C4CCNCC4)cnc3c2)cc2cn(C)nc12 [Compound 232] | < 100 | < 100 | 100 to 1000 | < 100 | < 100
7 | Cc1cc(-c2cc(F)c3c(=O)n(C4CCN(C)CC4)cnc3c2)cc2cn(C)nc12 [Compound 233, 7-(2,7-dimethyl-2H-indazol-5-yl)-5-fluoro-3-(1-methylpiperidin-4-yl)quinazolin-4(3H)-one] | 100 to 1000 | 100 to 1000 | 1000 to 10000 | < 100 | 100 to 1000
8 | Cc1cc(-c2ccc3c(=O)n(C4CCNCC4)cnc3c2F)cc2cn(C)nc12 [Compound 234, 7-(2,7-dimethyl-2H-indazol-5-yl)-8-fluoro-3-(piperidin-4-yl)quinazolin-4(3H)-one] | 1000 to 10000 | 1000 to 10000 | > 10000 | < 100 | 1000 to 10000
9 | Cc1cc(-c2ccc3c(=O)n(C4CCN(C)CC4)cnc3c2F)cc2cn(C)nc12 [Compound 235, 7-(2,7-dimethyl-2H-indazol-5-yl)-8-fluoro-3-(1-methylpiperidin-4-yl)quinazolin-4(3H)-one] | > 10000 | > 10000 | > 10000 | 100 to 1000 | > 10000
10 | Cc1cn2cc(-c3ccc4c(=O)n(C5CCNC6(CC6)C5)cnc4c3)cc(F)c2n1 (stereo not drawn) [Compound 236, 7-(8-fluoro-2-methylimidazo[1,2-a]pyridin-6-yl)-3-(4-azaspiro[2.5]octan-7-yl)quinazolin-4(3H)-one] | 100 to 1000 | 100 to 1000 | 100 to 1000 | < 100 | 100 to 1000
11 | Cc1cn2cc(-c3ccc4c(=O)n(C5CCNC(C)(C)C5)cnc4c3)cc(F)c2n1 (stereo not drawn) [Compound 237, 3-(2,2-dimethylpiperidin-4-yl)-7-(8-fluoro-2-methylimidazo[1,2-a]pyridin-6-yl)quinazolin-4(3H)-one] | 100 to 1000 | 100 to 1000 | 1000 to 10000 | < 100 | 100 to 1000
12 | Cc1cn2cc(-c3ccc4nc(NC5CCNCC5)[nH]c(=O)c4c3)cc(F)c2n1 [Compound 238] | > 10000 | > 10000 | > 10000 | > 10000 | > 10000
13 | Cc1cc(-c2nc3ccc(N(C)C4CCN(C)CC4)cc3c(=O)[nH]2)cc2cn(C)nc12 [Compound 239, 2-(2,7-dimethyl-2H-indazol-5-yl)-6-(methyl(1-methylpiperidin-4-yl)amino)quinazolin-4(3H)-one] | > 10000 | > 10000 | > 10000 | 1000 to 10000 | > 10000
14 | Cc1cn2nc(-n3cnc4cc(N5CCNCC5)ccc4c3=O)cc(C)c2n1 [Compound 241, 3-(2,8-dimethylimidazo[1,2-b]pyridazin-6-yl)-7-(piperazin-1-yl)quinazolin-4(3H)-one] | 1000 to 10000 | 1000 to 10000 | 1000 to 10000 | 1000 to 10000 | 1000 to 10000
15 | Cc1cn2nc(-c3cc(F)c4c(=O)n(C5CCN(C)CC5)cnc4c3)cc(C)c2n1 [Compound 242, 7-(2,8-dimethylimidazo[1,2-b]pyridazin-6-yl)-5-fluoro-3-(1-methylpiperidin-4-yl)quinazolin-4(3H)-one] | < 100 | < 100 | 100 to 1000 | < 100 | < 100
